Experimental data published in patent publication US20240376119A1, “SPIRO COMPOUND AND USE THEREOF” (CSPC Zhongqi Pharmaceutical Technology (Shijiazhuang) Co., …, priority 2021, published 2024).

How the values were obtained:
SHP2 = SHP2 (Homo sapiens (Human), UniProt Q06124); assay: Assay for the inhibitory effect on the SHP2 enzyme (DiFMUP substrate, fluorescence); assay type: biochemical; conditions: SHP2 activated with SHP-2 activated peptide; DiFMUP 10 μM; read-out: Enzymatic Effect (IC50 on SHP2)
Chain of SHP2 (Q06124 whole entry): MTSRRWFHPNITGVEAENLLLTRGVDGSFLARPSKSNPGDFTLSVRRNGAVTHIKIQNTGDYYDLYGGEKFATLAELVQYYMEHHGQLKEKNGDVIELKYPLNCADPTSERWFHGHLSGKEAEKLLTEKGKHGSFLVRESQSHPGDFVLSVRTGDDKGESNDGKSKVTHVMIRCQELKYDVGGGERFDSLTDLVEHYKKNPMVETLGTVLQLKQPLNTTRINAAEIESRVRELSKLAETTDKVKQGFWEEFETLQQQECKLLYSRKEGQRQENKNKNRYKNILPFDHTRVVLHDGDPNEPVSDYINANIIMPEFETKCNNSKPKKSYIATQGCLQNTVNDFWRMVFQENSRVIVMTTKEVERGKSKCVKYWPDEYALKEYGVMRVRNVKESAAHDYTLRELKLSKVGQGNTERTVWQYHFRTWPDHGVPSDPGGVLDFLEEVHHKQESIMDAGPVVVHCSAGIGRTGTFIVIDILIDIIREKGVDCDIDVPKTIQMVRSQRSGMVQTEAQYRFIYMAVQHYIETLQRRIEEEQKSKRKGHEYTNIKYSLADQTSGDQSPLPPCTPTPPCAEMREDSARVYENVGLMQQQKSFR
Protocol: 1× Assay buffer was prepared. A compound to be tested was diluted with DMSO solvent to a stock concentration of 10 mM. The compound to be tested was first diluted to an intermediate concentration of 1000 μM and then further diluted in a 3-fold gradient using DMSO. Therefore, the intermediate gradient dilution concentration of the compound to be tested was: 1000 μM, 3-fold dilution, 11 gradients. 100 nL of each concentration of the compound in the 384-well LDV echo plate was transferred to a new 384-well ELISA plate (assay plate) (corning, Cat #4514) by the Echo550 instrument. The final concentration of the compound to be tested was 10 μM, 3-fold dilution, 11 gradients in duplicate after 10 μL of the reaction reagent was added. The final DMSO concentration was 1%. For both negative and positive control wells, 100 nL DMSO would be transferred.
A mixed liquor of 2× working SHP2 reagent (0.4 nM) and 0.5 μM SHP-2 activated peptide (BPS bioscience #79319-2) was prepared with 1× enzyme buffer. After the above-mixed liquor was incubated at 25° C. for 60 minutes, 5 μL of activated SHP2 kinase solution was transferred with a pipettor to the compound wells and the Max control wells (Corning, #4514) of the plate. Then 5 μL of 1× kinase buffer was transferred to the Min control wells. The plate was centrifuged at 1000 rpm for 30 seconds, sealed, and incubated in a 25° C. constant-temperature incubator for 30 minutes. A substrate solution of DiFMUP (#D6567, Invitrogen™) was prepared with 1× kinase buffer, and its concentration should be 2 times as the final concentration of the assay (DiFMUP final concentration: 10 μM). 5 μL of the prepared substrate solution was transferred with an electric pipettor into each well of the ELISA plate to start the reaction. The plate was centrifuged at 1000 rpm for 30 seconds, sealed, and incubated in a 25° C. constant-temperature incubator for 60 minutes. Read the plate at the excitation/emission wavelength of 358/455 nm after the ELISA plate was placed on the Spark machine.
The RLU values were collected from Spark and the inhibition rate was calculated with the RLU values. Inhibition rate=(maximum value-sample RLU)/(maximum value-minimum value)*100. “Minimum value” was referred to the RLU of the enzyme-free control, and “maximum value” was referred to the RLU of the DMSO control. The data were fit by using the XLFit Excel module (version 5.4.0.8) to obtain IC50 values, and the results are shown in Table 1.

hERG channel = hERG channel (Homo sapiens (Human), UniProt Q12809); assay: hERG assay, manual whole-cell patch clamp in CHO-K1 cell line stably expressing the hERG channel; assay type: cell-based
Chain of hERG channel (Q12809 whole entry): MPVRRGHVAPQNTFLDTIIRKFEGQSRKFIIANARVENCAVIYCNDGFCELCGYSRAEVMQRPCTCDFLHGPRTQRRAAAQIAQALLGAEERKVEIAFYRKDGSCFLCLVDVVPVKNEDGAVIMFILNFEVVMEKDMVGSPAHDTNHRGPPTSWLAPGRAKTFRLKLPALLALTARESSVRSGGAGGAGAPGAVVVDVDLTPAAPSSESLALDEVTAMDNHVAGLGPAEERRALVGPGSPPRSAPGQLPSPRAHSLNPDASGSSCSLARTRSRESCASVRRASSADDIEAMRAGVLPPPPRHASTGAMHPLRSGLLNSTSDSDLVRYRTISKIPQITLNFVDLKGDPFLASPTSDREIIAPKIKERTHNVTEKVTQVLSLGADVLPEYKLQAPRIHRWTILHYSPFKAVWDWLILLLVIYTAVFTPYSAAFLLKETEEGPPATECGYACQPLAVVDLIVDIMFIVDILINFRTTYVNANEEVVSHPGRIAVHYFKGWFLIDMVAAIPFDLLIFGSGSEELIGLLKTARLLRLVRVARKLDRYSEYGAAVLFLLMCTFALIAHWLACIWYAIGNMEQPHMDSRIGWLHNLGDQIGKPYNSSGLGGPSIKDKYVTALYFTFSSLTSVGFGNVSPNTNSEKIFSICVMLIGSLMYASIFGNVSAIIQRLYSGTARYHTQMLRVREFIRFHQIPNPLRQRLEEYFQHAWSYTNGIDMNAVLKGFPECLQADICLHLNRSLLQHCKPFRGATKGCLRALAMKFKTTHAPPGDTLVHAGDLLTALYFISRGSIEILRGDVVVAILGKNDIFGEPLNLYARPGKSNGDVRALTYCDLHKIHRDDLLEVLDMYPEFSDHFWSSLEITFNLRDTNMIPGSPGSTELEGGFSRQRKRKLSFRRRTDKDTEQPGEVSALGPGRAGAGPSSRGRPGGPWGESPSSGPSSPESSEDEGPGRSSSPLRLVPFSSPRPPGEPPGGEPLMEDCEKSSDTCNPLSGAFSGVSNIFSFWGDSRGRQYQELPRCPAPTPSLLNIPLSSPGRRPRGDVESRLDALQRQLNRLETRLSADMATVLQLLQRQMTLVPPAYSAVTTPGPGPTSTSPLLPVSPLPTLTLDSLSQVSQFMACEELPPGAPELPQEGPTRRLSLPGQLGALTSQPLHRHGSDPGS
Protocol: This assay included the following aspects: • A manual patch clamp technique was used to record the hERG current in the CHO-K1 cell line stably expressing the hERG channel; • The inhibition rate at each concentration was calculated based on the hERG tail current; • Each compound was tested at 5 concentrations to calculate the IC50 value; • Three cells were tested for each concentration; • One positive control drug was set.
HERG currents were recorded using the whole-cell patch-clamp technique. The cell suspension was added to the cell tank and placed on the upright microscope stage. After the cell adherence, the cells were perfused with extracellular fluid at a flow rate of 1-2 mL/min. The glass microelectrode was drawn in two steps by a micropipette puller, and its resistance value in water was 2-5 MΩ. After establishing the whole-cell recording, the clamp potential was maintained at −80 mV. The hERG tail current was elicited by applying a depolarizing voltage to +60 mV upon the voltage stimulation and then repolarizing to −50 mV. All recordings were made after the current stabilization. Extracellular perfusion administration started from a low concentration, and each concentration lasted for 5-10 minutes until the current was stable, and then proceeded to the next concentration.
The half inhibitory concentration (ICSO) of the test compound was derived from the best fit of the Logistic equation.

[1] = Mouse tolerance assay (once daily for 7 consecutive days); assay type: in vivo; conditions: mouse, in vivo; for Number of animals (number of deaths/total number): 7 days
Protocol: • Assay animals: ICR mice, female, 5 weeks old • Solvent: 2% DMSO+98% (0.5% MC), treated by sufficient vortex and sonicated to obtain a uniform suspension • Assay method: Female ICR mice were divided into 4 groups according to weight balance, with 5 mice in each group. The administration doses were 50 mg/kg and 200 mg/kg respectively. The compound was administrated once daily for 7 consecutive days.

## [2H][C@@]1(N)c2ccccc2OC12CCN(c1nc(N)c(Sc3ccnc(N)c3Cl)nc1C(C)=O)CC2 [Compound 56, (R)-1-(5-amino-6-((2-amino-3-chloropyridine-4-yl)sulfanyl)-3-(3-amino-3-deuterium-spiro[benzofuran-2,4′-piperidine]-1′-yl)pyrazine-2-yl)ethanone]
SHP2
  IC50: ≤ 0.02 µM
hERG channel; CHO-K1 stable cell line, hERG tail current, 5 concentrations
  IC50: > 10 µM
hERG channel; within the detection concentration range of the assay
  inhibitory effect on the hERG channel (in words): no obvious inhibitory effect on the hERG channel
[1]; female, ICR
  MTD at 7 days: > 200 mg/kg
[1]; female, ICR, 50 mg/kg
  Number of animals (number of deaths/total number): 0/5F
[1]; female, ICR, 200 mg/kg
  Number of animals (number of deaths/total number): 0/5F
[1]
  tolerance in mice compared with positive control compound TW-45: significantly better
